Reference: US10076519B2 (CYTOKINETICS, INC., priority 2010, dated 2018)

Tested on: rabbit skeletal myofibrils (fast skeletal myofibrils)
Assay: Activation of fast skeletal myofibrils (PUMA assay, PK/LDH-coupled ATPase at pCa25)
Format: biochemical
Conditions: AC1.4 determined according to the procedure of Example 39; reported as class symbols
Procedure: Preparation of Fast Skeletal Myofibrils.
Rabbit skeletal myofibrils were prepared based upon the method of Herrmann et al. (Biochem. 32(28):7255-7263(1993). Myofibrils were prepared from rabbit psoas muscle purchased from Pel-Freez Biologicals (Arkansas) within 2 days of ordering, stored on ice. Minced muscle was homogenized in 10 volumes of ice-cold “standard” buffer (50 mM Tris, pH 7.4, 0.1M potassium acetate, 5 mM KCl, 2 mM DTT, 0.2 mM PMSF, 10 μM leupeptin, 5 μM pepstatin, and 0.5 mM sodium azide) containing 5 mM EDTA and 0.5% Triton X-100 using an Omni-Macro homogenizer. Myofibrils were recovered by low speed centrifugation (3000 rpm for 10 minutes) and washed 2 times in the Triton X-100 containing buffer to ensure removal of cellular membrane. Following the Triton washes, myofibrils were washed 3 times in “standard” buffer containing 2 mM magnesium acetate. A final wash in assay buffer (12 mM PIPES, pH 6.8, 60 mM KCl, 1 mM DTT) was performed and brought to 10% sucrose for flash freezing in liquid nitrogen and storage at −80° C.
Activation of Fast Skeletal Myofibrils.
Fast fiber activators were identified by measuring the enzymatic activity of muscle myofibril preparations using the proprietary PUMA™ (see, e.g., U.S. Pat. Nos. 6,410,254, 6,743,599, 7,202,051, and 7,378,254) assay system. Myofibril preparations consisted of rabbit skeletal muscle (approximately 90% fast fibers) that had been mechanically homogenized and washed with a detergent (triton X-100) to remove cellular membranes. This preparation retained all of the sarcomeric components in a native conformation and the enzymatic activity was still regulated by calcium. Compounds were tested using a myofibril suspension and a level of calcium sufficient to increase enzymatic activity of the myofibrils to 25% of their maximal rate (termed pCa25). Enzymatic activity was tracked via a pyruvate kinase and lactate dehydrogenase-coupled enzyme system. This assay regenerates myosin-produced ADP into ATP by oxidizing NADH, producing an absorbance change at 340 nm. The buffering system was 12 mM Pipes, 2 mM MgCl2, 1 mM DTT at pH 6.8 (PM12 buffer).
Using procedures similar to those described herein, utilizing reagents and intermediates commercially available (e.g., Sigma-Aldrich, St. Louis, Mo.) or readily synthesized by one of skill in the art, the compounds in Table 2 were synthesized, characterized and tested. AC1.4 values were determined according to the procedure described in Example 39, and the reported median AC1.4 values are as follows: A=<1 uM; B=1-10 uM; C=10-20 uM; D=>20 uM.

In the case of `CC(C)(CNc1ccc(-c2ccc3nc(N)[nH]c(=O)c3c2)nn1)c1ccc(F)cc1`, the “Mean AC1.4” value is reported as “A (A=<1 uM)”.

`CC(C)(CNc1ccc(-c2cc(=O)[nH]c(N)n2)nn1)c1ccc(F)cc1` was tested, and the “Mean AC1.4” value was “B (B=1-10 uM)”.

`NC(=O)c1cccc(-c2ccc(NCC3CCCc4ccccc43)nn2)c1` (stereo not shown) was tested, and the “Mean AC1.4” value was “B (B=1-10 uM)”.

In the case of `NC(=O)c1cccc(-c2ccc(NCCc3ccccc3Cl)nn2)c1`, the “Mean AC1.4” value is reported as “B (B=1-10 uM)”.

With `CCCC(CNc1ccc(-c2cccc(C(N)=O)c2)nn1)c1ccccc1Cl` (stereo not shown) the “Mean AC1.4” value was “B (B=1-10 uM)”.

In the case of `CC(CNc1ccc(-c2cccc(C(N)=O)c2)nn1)c1ccccc1F` (stereo not shown), the “Mean AC1.4” value is reported as “B (B=1-10 uM)”.

In the case of `CC(CNc1ccc(-c2cccc(C(N)=O)c2)nn1)N1CCCCC1=O` (stereo not shown), the “Mean AC1.4” value is reported as “D (D=>20 uM)”.

In the case of `CC(CNc1ccc(-c2cccc(C(N)=O)c2)nn1)N1CCCC1=O` (stereo not shown), the “Mean AC1.4” value is reported as “D (D=>20 uM)”.

For `NC(=O)c1cccc(-c2ccc(NCCc3cccc(Cl)c3)nn2)c1`, the “Mean AC1.4” value was “B (B=1-10 uM)”.

`NC(=O)c1cccc(-c2ccc(NCCc3ccc(Cl)cc3)nn2)c1` was tested, and the “Mean AC1.4” value was “D (D=>20 uM)”.

With `NC(=O)c1cccc(-c2ccc(NCCc3ccc(F)cc3)nn2)c1` the “Mean AC1.4” value was “D (D=>20 uM)”.

`COc1ccc(CCNc2ccc(-c3cccc(C(N)=O)c3)nn2)cc1` was tested, and the “Mean AC1.4” value was “D (D=>20 uM)”.

`Cc1ccc(CCNc2ccc(-c3cccc(C(N)=O)c3)nn2)cc1` was tested, and the “Mean AC1.4” value was “C (C=10-20 uM)”.

`NC(=O)c1cccc(-c2ccc(NCC(CC3OCCO3)c3ccccc3F)nn2)c1` (stereo not shown) was tested, and the “Mean AC1.4” value was “D (D=>20 uM)”.

In the case of `C[C@@H](CNc1ccc(-c2cccc(C(N)=O)c2)nn1)c1ccc(F)cc1`, the “Mean AC1.4” value is reported as “B (B=1-10 uM)”.

For `C[C@H](CNc1ccc(-c2cccc(C(N)=O)c2)nn1)c1ccc(F)cc1`, the “Mean AC1.4” value was “B (B=1-10 uM)”.

With `NC(=O)c1cccc(-c2ccc(N[C@@H]3C[C@H]3c3ccccc3)nn2)c1` the “Mean AC1.4” value was “D (D=>20 uM)”.

In the case of `CC(C)(CNc1ccc(-c2ccc3[nH]nc(N)c3c2)nn1)c1ccc(C(N)=O)cc1`, the “Mean AC1.4” value is reported as “D (D=>20 uM)”.

With `CC(C)(CNc1ccc(-c2ccc3[nH]nc(N)c3c2)nn1)c1ccc(C#N)cc1` the “Mean AC1.4” value was “A (A=<1 uM)”.

With `CC(C)(CNc1ccc(C(=O)N2CCN(C(N)=O)CC2)nn1)c1ccc(F)cc1` the “Mean AC1.4” value was “D (D=>20 uM)”.

In the case of `CC(C)(CNc1ccc(-c2ccc3[nH]c(=O)[nH]c3c2)nn1)c1ccccc1CO`, the “Mean AC1.4” value is reported as “B (B=1-10 uM)”.

With `CC(C)(CNc1ccc(-c2ccc3[nH]c(=O)[nH]c3c2)nn1)c1ccccc1F` the “Mean AC1.4” value was “A (A=<1 uM)”.

With `CC(C)(CNc1ccc(-c2ccc3oc(=O)[nH]c3c2)nn1)c1ccc(F)cc1` the “Mean AC1.4” value was “B (B=1-10 uM)”.

For `CC(C)(Cc1ccc(F)cc1)Nc1ccc(-c2ccc3[nH]c(=O)[nH]c3c2)nn1`, the “Mean AC1.4” value was “D (D=>20 uM)”.

With `CC(C)(CNc1ccc(-c2ccc3[nH]c(=O)[nH]c3c2)nn1)c1ccccc1` the “Mean AC1.4” value was “A (A=<1 uM)”.

With `CC(C)(C)CNc1ccc(-c2ccc3[nH]c(=O)[nH]c3c2)nn1` the “Mean AC1.4” value was “D (D=>20 uM)”.

With `O=c1[nH]c2ccc(-c3ccc(NCC4(c5ccc(F)cc5)CC4)nn3)cc2[nH]1` the “Mean AC1.4” value was “A (A=<1 uM)”.

In the case of `CC(C)(CNc1ccc(-c2ccc3[nH]c(=O)oc3c2)nn1)c1ccc(F)cc1`, the “Mean AC1.4” value is reported as “A (A=<1 uM)”.

With `CC(C)(CNc1ccc(-c2ccc3nc[nH]c(=O)c3c2)nn1)c1ccc(F)cc1` the “Mean AC1.4” value was “B (B=1-10 uM)”.

For `CC(C)(C)OC(=O)N(CC(C)(C)c1ccc(F)cc1)c1ccc(-c2cc(=O)[nH]c(N)n2)nn1`, the “Mean AC1.4” value was “B (B=1-10 uM)”.

In the case of `CC(C)(CNc1ccc(-c2ccc3[nH]nc(N)c3c2)nn1)c1ccc(CO)cc1`, the “Mean AC1.4” value is reported as “D (D=>20 uM)”.

With `CC1(C)CC1(CNc1ccc(-c2ccc3[nH]nc(N)c3c2)nn1)c1ccccc1` (stereo not shown) the “Mean AC1.4” value was “A (A=<1 uM)”.

`Nc1n[nH]c2ccc(-c3ccc(NCC4(c5ccccc5)CCC4)nn3)cc12` was tested, and the “Mean AC1.4” value was “A (A=<1 uM)”.

With `Nc1n[nH]c2ccc(-c3ccc(NCC4(c5ccccc5)CC4)nn3)cc12` the “Mean AC1.4” value was “A (A=<1 uM)”.

`CC(C)(CNc1ccc(CO)nn1)c1ccc(F)cc1` was tested, and the “Mean AC1.4” value was “D (D=>20 uM)”.

For `CN(C)Cc1ccc(C(C)(C)CNc2ccc(-c3ccc4[nH]nc(N)c4c3)nn2)cc1`, the “Mean AC1.4” value was “D (D=>20 uM)”.

In the case of `CC(C)(C)OC(=O)N1CCN(C(=O)c2ccc(NCC(C)(C)c3ccc(F)cc3)nn2)C(CO)C1` (stereo not shown), the “Mean AC1.4” value is reported as “D (D=>20 uM)”.
